One may read the IC50 as the concentration at which inhibition is half-maximal. A low value points to greater potency in that assay. One may read the melting point as the temperature of the solid-liquid transition.

Results on ten compounds are retold here after publication PMC8759726, “Click chemistry based synthesis, cytotoxic activity and molecular docking of novel triazole-thienopyrimidine hybrid glycosides targeting EGFR” (Journal of Enzyme Inhibition and Medicinal Chemistry, 2021).

The test system of series [1] is HCT-116 (human colorectal carcinoma) cell line. Put plainly: MTT cytotoxicity assay, HCT-116. It counts as cell-based. Conditions: 48 h incubation, mean ± SD. The protocol: (§1) HCT-116 (human colorectal carcinoma) and MCF-7 (human breast adenocarcinoma) cell lines were purchased from the American Type Culture Collection (Rockville, MD) and maintained in Dulbecco’s Modified Eagle’s Medium (DMEM) supplemented with 10% heat-inactivated foetal bovine serum (FBS), 100 U ml^−1 penicillin, and 100 U ml^−1 streptomycin. The cells were grown at 37 °C in a humidified atmosphere of 5% CO2.
(§2) Cytotoxicity activity against HCT-116 and MCF-7 was estimated by the 3-[4,5-dimethyl-2-thiazolyl)-2,5-diphenyl-2H-tetrazolium bromide (MTT) assay. This test is based on MTT cleavage by mitochondrial dehydrogenases from viable cells[43]^,[44]. Cells were placed in a 96-well sterile microplate (5 × 10^4 cells well^−1) and incubated at 37 °C in serum-free media containing dimethyl sulphoxide (DMSO) and either a series of various concentrations of each compound or doxorubicin (positive control) for 48 h before the MTT assay. After incubation, the media were removed and 40 µl MTT (2.5 mg ml^−1) was added to each well. Incubation was resumed for an additional 4 h. The purple formazan dye crystals were solubilised with 200 µl DMSO. Absorbance was measured at 590 nm in a Spectra Max Paradigm Multi-Mode microplate reader (Molecular Devices, LLC, San Jose, CA). Relative cell viability was expressed as the mean percentage of viable cells compared to the untreated control cells.
(§3) All experiments were conducted in triplicate and repeated on three different days. All values were reported as mean ± SD. The IC50 values were determined by SPSS Inc. probit analysis (IBM Corp., Armonk, NY).
(Tetrazolium assays rely on reduction of a dye to a coloured formazan, in cell work by metabolically active cells.)

Series [2] has as its system MCF-7 (human breast adenocarcinoma) cell line. Put plainly: MTT cytotoxicity assay, MCF-7. The class given is cell-based. To be noted: 48 h incubation, mean ± SD. The protocol: as §1, §2, §3
Series [3] concerns the target mutant EGFR kinase type L858R (Homo sapiens, UniProt P00533, L858R). The series can be described thus: In vitro kinase inhibition assay (Kinase-Glo Max luminescence). To be noted: IC50 (mean ± SEM) (µM) EGFR, mean of three values ± SEM.
Description: The master mixture (6 μl 5× kinase buffer + 1 μl ATP (500 μM)+1 μl 50× PTK substrate + 17 μl water) was prepared then, 25 μl to every well was added. Five microlitres of inhibitor solution of each well labelled as “Test Inhibitor” was added. However, for the “Positive Control” and “Blank”, 5 μl of the same solution without inhibitor (inhibitor buffer) was added. Three millilitres of 1× kinase buffer by mixing 600 μl of 5× kinase buffer with 2400 μl water was prepared. […] To the wells designated as “Blank”, 20 μl of 1× kinase buffer was added. EGFR enzyme on ice was thawed. Upon first thaw, briefly the tube containing enzyme was spun to recover full content of the tube. The amount of EGFR required for the assay and dilute enzyme to 1 ng/μl with 1× kinase buffer was calculated. Moreover, the remaining undiluted enzyme in aliquots was stored at –80 °C. The reaction was initiated by adding 20 μl of diluted EGFR enzyme to the wells designated “Positive Control” and “Test Inhibitor Control”, after that it was incubated at 30 °C for 40 min. After the 40 minutes’ reaction, 50 μl of Kinase-Glo Max reagent was added to each well and the plate was covered with aluminium foil and incubated at room temperature for 15 min. Luminescence was measured using the microplate reader.

Sequence of mutant EGFR kinase type L858R (P00533 25-1210 L858R): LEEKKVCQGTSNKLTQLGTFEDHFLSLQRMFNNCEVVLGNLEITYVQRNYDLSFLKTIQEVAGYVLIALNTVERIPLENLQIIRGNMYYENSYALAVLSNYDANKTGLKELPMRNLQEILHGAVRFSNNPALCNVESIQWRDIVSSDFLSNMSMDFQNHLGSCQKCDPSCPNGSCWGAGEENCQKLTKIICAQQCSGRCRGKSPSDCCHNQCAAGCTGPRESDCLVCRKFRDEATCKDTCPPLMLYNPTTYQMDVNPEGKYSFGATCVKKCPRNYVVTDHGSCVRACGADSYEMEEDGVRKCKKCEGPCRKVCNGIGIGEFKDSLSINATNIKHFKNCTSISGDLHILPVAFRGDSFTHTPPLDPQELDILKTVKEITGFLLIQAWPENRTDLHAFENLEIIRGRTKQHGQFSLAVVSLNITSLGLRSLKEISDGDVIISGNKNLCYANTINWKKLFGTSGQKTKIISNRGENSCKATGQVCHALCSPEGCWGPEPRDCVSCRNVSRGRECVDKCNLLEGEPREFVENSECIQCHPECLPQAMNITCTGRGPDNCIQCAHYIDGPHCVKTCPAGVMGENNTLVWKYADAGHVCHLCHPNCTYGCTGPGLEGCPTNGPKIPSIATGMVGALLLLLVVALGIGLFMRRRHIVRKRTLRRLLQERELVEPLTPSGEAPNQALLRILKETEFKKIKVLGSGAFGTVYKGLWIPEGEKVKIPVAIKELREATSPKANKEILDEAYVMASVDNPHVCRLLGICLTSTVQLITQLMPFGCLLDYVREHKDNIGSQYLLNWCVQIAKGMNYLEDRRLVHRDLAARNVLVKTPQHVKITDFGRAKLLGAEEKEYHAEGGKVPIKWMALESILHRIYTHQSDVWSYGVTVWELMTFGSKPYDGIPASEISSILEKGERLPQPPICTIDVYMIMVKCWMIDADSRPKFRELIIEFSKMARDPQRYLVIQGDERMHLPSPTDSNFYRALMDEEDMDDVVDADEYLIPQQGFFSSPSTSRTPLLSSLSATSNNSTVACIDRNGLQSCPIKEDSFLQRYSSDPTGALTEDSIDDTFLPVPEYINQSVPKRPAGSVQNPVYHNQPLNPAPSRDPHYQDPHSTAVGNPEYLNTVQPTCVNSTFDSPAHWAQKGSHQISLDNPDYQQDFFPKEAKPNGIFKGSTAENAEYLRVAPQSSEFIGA

The compound `C#CCSc1nc2sc3c(c2c(=O)n1N)CCC3` [Compound 2, 3-Amino-2-(prop-2-yn-1-ylthio)-3,5,6,7-tetrahydro-4H-cyclopenta[4,5]thieno[2,3-d]pyrimidin-4-one] came in with a melting point of 181 to 182 °C. This compound also gave an IC50 in series [1] (Homo sapiens, HCT-116, 48 h) of 8.6 ± 1.9 µM. In addition, the concentration for half-maximal inhibition (IC50) in series [2] (Homo sapiens, MCF7, 48 h) worked out at 2.1 ± 0.3 µM. Besides, half-maximal inhibition in series [3] (IC50) required 0.5 ± 1 µM.

Compound `CC(=O)OC[C@H]1O[C@@H](n2cc(CSc3nc4sc5c(c4c(=O)n3N)CCC5)nn2)[C@H](OC(C)=O)[C@@H](OC(C)=O)[C@@H]1OC(C)=O` [Compound 4, 3-Amino-2-(((1-(2,3,4,6-tetra-O-acetyl-β-D-glucopyranosyl)-1H-1,2,3-triazol-4-yl)methyl)thio)-3,5,6,7-tetrahydro-4H-cyclopenta [4,5]thieno[2,3-d]pyrimidin-4-one] yielded a melting point of 151 to 152 °C.

The compound `CC(=O)OC1COC(n2cc(CSc3nc4sc5c(c4c(=O)n3N)CCC5)nn2)C(OC(C)=O)C1OC(C)=O` [Compound 5, 3-Amino-2-(((1-(2,3,4-tri-O-acetyl-β-D-xyloopyranosyl)-1H-1,2,3-triazol-4-yl)methyl)thio)-3,5,6,7-tetrahydro-4H-cyclopenta[4,5]thieno[2,3-d]pyrimidin-4-one] yielded a melting point of 155 to 156 °C. Also, the midpoint of inhibition in series [1] (Homo sapiens, HCT-116, 48 h), the IC50, lay at 8.6 ± 0.9 µM. In series [2] (Homo sapiens, MCF7, 48 h), this compound showed an IC50 of 2.9 ± 0.4 µM. In series [3], this compound gave an IC50 of 0.13 µM.

In the case of `Nn1c(SCc2cn([C@@H]3OC[C@@H](O)[C@H](O)[C@H]3O)nn2)nc2sc3c(c2c1=O)CCC3` [Compound 7, 3-Amino-2-(((1-(β-D-xylopyranosyl)-1H-1,2,3-triazol-4-yl)methyl)thio)-3,5,6,7-tetrahydro-4H-cyclopenta[4,5]thieno[2,3-d]pyrimidin-4-one], the melting point fell in the range of 189 to 190 °C. The compound also displayed an IC50 in series [1] (Homo sapiens, HCT-116, 48 h) of 8.7 ± 1.5 µM. Moreover, the IC50 in series [2] (Homo sapiens, MCF7, 48 h) came to 4.3 ± 0.8 µM. Also, the IC50 in series [3] is 0.17 ± 0.43 µM.

The compound `CC(=O)OCC1OC(OCc2cn(CCSc3nc4sc5c(c4c(=O)n3N)CCC5)nn2)C(OC(C)=O)C(OC(C)=O)C1OC(C)=O` [Compound 13, 3-Amino-2-(ethylylthio)-{2-[4-({[2,3,4,6-tetra-O-acetyl-β-D-glucopyranosyl]oxy}methyl)-1H-1,2,3-triazol-1-yl]ethoxy}-3,5,6,7-tetrahydro-4H-cyclopenta[4,5]thieno[2,3-d] pyrimidin-4-one] had a melting point of 159 to 160 °C. Besides, the IC50 in series [1] (Homo sapiens, HCT-116, 48 h) worked out at 8.7 ± 1.6 µM. This compound also gave an IC50 in series [2] (Homo sapiens, MCF7, 48 h) of 4.2 ± 0.5 µM.

For `CC(=O)OCC1OC(OCc2cn(CCSc3nc4sc5c(c4c(=O)n3N)CCC5)nn2)C(OC(C)=O)C(OC(C)=O)C1OC(C)=O` (stereo not drawn) [Compound 14], the melting point fell in the range of 156 to 157 °C. For the same compound, the IC50 in series [1] is 8.8 ± 1.1 µM. Also, in series [2], half-maximal inhibition (IC50) was put at 4.5 ± 0.7 µM. The compound also came in with an IC50 in series [3] of 0.013 µM.

On to `CC(=O)OC1COC(OCc2cn(CCSc3nc4sc5c(c4c(=O)n3N)CCC5)nn2)C(OC(C)=O)C1OC(C)=O` (stereo not drawn) [Compound 15], for which the melting point is 153 to 154 °C. The IC50 in series [1] (Homo sapiens, HCT-116, 48 h) is 8.9 ± 1.1 µM. The compound further displayed an IC50 in series [2] (Homo sapiens, MCF7, 48 h) of 5 ± 0.9 µM. The same compound returned an IC50 in series [3] of 0.017 µM.

The compound `CC(=O)OCC1OC(OCc2cn(CCCCSc3nc4sc5c(c4c(=O)n3N)CCC5)nn2)C(OC(C)=O)C(OC(C)=O)C1OC(C)=O` (stereo not drawn) [Compound 16] yielded a melting point of 163 to 164 °C. The same compound returned an IC50 in series [1] (Homo sapiens, HCT-116, 48 h) of 8.1 ± 0.8 µM. Further, the IC50 in series [2] (Homo sapiens, MCF7, 48 h) is 5.3 ± 0.8 µM.

As for `CC(=O)OCC1OC(OCc2cn(CCCCSc3nc4sc5c(c4c(=O)n3N)CCC5)nn2)C(OC(C)=O)C(OC(C)=O)C1OC(C)=O` (stereo not drawn) [Compound 17], the melting point was 159 to 160 °C. Besides, in series [1], the IC50 was determined as 8.4 ± 1.1 µM. The IC50 in series [2] was 5.2 ± 0.9 µM. In series [3], this compound returned a concentration for half-maximal inhibition (IC50) of 0.02 µM.

In the case of `COc1cccc2c1C(=O)c1c(O)c3c(c(O)c1C2=O)C[C@@](O)(C(=O)CO)C[C@@H]3O[C@H]1C[C@H](N)[C@H](O)[C@H](C)O1` [Doxorubicin, reference compound], the IC50 in series [1] (Homo sapiens, HCT-116, 48 h) was found to be 7.8 ± 0.7 µM; in series [2] (Homo sapiens, MCF7, 48 h) it was 6.7 ± 0.9 µM.
